pIC50: −log10 of the molar value.
What follows are compounds tested on IL-1b (assay: Mouse BMDM IL-1b Assay). Details: Macrophage; mouse bone marrow derived macrophages (C57BL6); 200 ng/mL LPS 3 h, compound 30 min, 5 mM ATP 45 min; IL-1b ELISA of supernatant.
Type: cell-based
Experimental: Example 20: Mouse BMDM IL-1b Assay
Mouse bone marrow cells from C57BL6 tibia and femur were culture in complete Isocov's Media supplemented with 20 ng/mL MCSF (BMDM media) at a density of 50 million cells/15 cm Petri dish. Fresh media was changed every 3 days, and bone marrow derived macrophages were collected, washed, and counted on day 7. Cells were seeded into 96 well plates at a density of 5×10^4 cells per well in 100 uL of BMDM media and cultured overnight. The cells were stimulated at 37° C. with 200 ng/mL Ultrapure LPS-B5 for 3 hours before pre-diluted compounds were added. 30 minutes after compound addition, 5 mM ATP was added for the secondary stimulation for 45 minutes. After stimulation, the plates were briefly spun down, and 50 uL of supernatant was harvested from each well. ELISA for mouse IL-1b was performed with 1:10 and 1:100 diluted supernatant using pre-coated kits. IL-1b concentrations were calculated based on pre-titrated standards, and compound inhibition IC50 is generated using the Levenberg Marquardt damped lease-square method.

| Structure (SMILES) | pIC50 |
| --- | --- |
| CC1(O)CCCCc2oc(S(=O)(=O)NC(=O)Nc3c4c(c(F)c5c3CCC5)CCC4)cc21 (stereo not drawn) [Compound 106, N-((8-fluoro-1,2,3,5,6,7-hexahydro-s-indacen-4-yl)carbamoyl)-4-hydroxy-4-methyl-5,6,7,8-tetrahydro-4H-cyclohepta[b]furan-2-sulfonamide] | > 7.00 |
| CC(C)c1ccc(F)c(C(C)C)c1NC(=O)NS(=O)(=O)c1cc2c(o1)CCCC2(C)O (stereo not drawn) [Compound 68, N-((3-fluoro-2,6-diisopropylphenyl)carbamoyl)-4-hydroxy-4-methyl-4,5,6,7-tetrahydrobenzofuran-2-sulfonamide] | > 7.00 |
| Cc1c2c(c(NC(=O)NS(=O)(=O)c3cc4c(o3)CCCC4(C)O)c3c1CCC3)CCC2 (stereo not drawn) [Compound 51, 4-hydroxy-4-methyl-N-((8-methyl-1,2,3,5,6,7-hexahydro-s-indacen-4-yl)carbamoyl)-4,5,6,7-tetrahydrobenzofuran-2-sulfonamide] | > 7.00 |
| Cc1c2c(c(NC(=O)NS(=O)(=O)c3cc4c(o3)CCCC4O)c3c1CCC3)CCC2 (stereo not drawn) [Compound 52, 4-hydroxy-N-((8-methyl-1,2,3,5,6,7-hexahydro-s-indacen-4-yl)carbamoyl)-4,5,6,7-tetrahydrobenzofuran-2-sulfonamide] | > 7.00 |
| CC1(O)CCCc2oc(S(=O)(=O)NC(=O)Cc3c4c(cc5c3CCC5)CCC4)cc21 (stereo not drawn) [Compound 58, 2-(1,2,3,5,6,7-hexahydro-s-indacen-4-yl)-N-((4-hydroxy-4-methyl-4,5,6,7-tetrahydrobenzofuran-2-yl)sulfonyl)acetamide] | 6.00 to 7.00 |
| CC1(O)CCCc2sc(S(=O)(=O)NC(=O)Nc3c4c(cc5c3CCC5)CCC4)cc21 (stereo not drawn) [Compound 123, N-((1,2,3,5,6,7-hexahydro-s-indacen-4-yl)carbamoyl)-4-hydroxy-4-methyl-4,5,6,7-tetrahydrobenzo[b]thiophene-2-sulfonamide] | > 7.00 |
| CC1(O)CCCc2oc(S(=O)(=O)NC(=O)Nc3c4c(c(F)c5c3CCC5)CCC4)cc21 (stereo not drawn) [Compound 47, N-((8-fluoro-1,2,3,5,6,7-hexahydro-s-indacen-4-yl)carbamoyl)-4-hydroxy-4-methyl-4,5,6,7-tetrahydrobenzofuran-2-sulfonamide] | > 7.00 |
| O=C(Nc1c2c(cc3c1CCC3)CCC2)NS(=O)(=O)c1cc2c(o1)CCCC2O (stereo not drawn) [Compound 8, N-((1,2,3,5,6,7-hexahydro-s-indacen-4-yl)carbamoyl)-4-hydroxy-4,5,6,7-tetrahydrobenzofuran-2-sulfonamide] | > 7.00 |
| CN1CCc2oc(S(=O)(=O)NC(=O)Nc3c4c(cc5c3CCC5)CCC4)cc2C1 [Compound 115, N-((1,2,3,5,6,7-hexahydro-s-indacen-4-yl)carbamoyl)-5-methyl-4,5,6,7-tetrahydrofuro[3,2-c]pyridine-2-sulfonamide] | > 7.00 |
| CC(C)c1cccc(C(C)C)c1NC(=O)NS(=O)(=O)c1cc2c(o1)CCCC2=NO [Compound 73, N-((2,6-diisopropylphenyl)carbamoyl)-4-(hydroxyimino)-4,5,6,7-tetrahydrobenzofuran-2-sulfonamide] | 6.00 to 7.00 |
| CC1(C)Cc2oc(S(=O)(=O)NC(=O)Nc3c4c(cc5c3CCC5)CCC4)cc2C(O)C1 (stereo not drawn) [Compound 22, N-((1,2,3,5,6,7-hexahydro-s-indacen-4-yl)carbamoyl)-4-hydroxy-6,6-dimethyl-4,5,6,7-tetrahydrobenzofuran-2-sulfonamide] | > 7.00 |
| O=C(Nc1c2c(c(Cl)c3c1CCC3)CCC2)NS(=O)(=O)c1cc2c(o1)CCC/C2=N/O [Compound 83, (Z)-N-((8-chloro-1,2,3,5,6,7-hexahydro-s-indacen-4-yl)carbamoyl)-4-(hydroxyimino)-4,5,6,7-tetrahydrobenzofuran-2-sulfonamide] | > 7.00 |
| CC(C)c1cccc(C(C)C)c1NC(=O)NS(=O)(=O)c1cc2c(o1)CCCC2O (stereo not drawn) [Compound 59, N-((2,6-diisopropylphenyl)carbamoyl)-4-hydroxy-4,5,6,7-tetrahydrobenzofuran-2-sulfonamide] | 6.00 to 7.00 |
| O=C(Nc1c2c(cc3c1CCC3)CCC2)NS(=O)(=O)c1cc2c(o1)CCCC2(O)C(F)(F)F (stereo not drawn) [Compound 56, N-((1,2,3,5,6,7-hexahydro-s-indacen-4-yl)carbamoyl)-4-hydroxy-4-(trifluoromethyl)-4,5,6,7-tetrahydrobenzofuran-2-sulfonamide] | > 7.00 |
| O=C(Nc1c2c(c(Br)c3c1CCC3)CCC2)NS(=O)(=O)c1cc2c(o1)CCCCC2O (stereo not drawn) [Compound 118, N-((8-bromo-1,2,3,5,6,7-hexahydro-s-indacen-4-yl)carbamoyl)-4-hydroxy-5,6,7,8-tetrahydro-4H-cyclohepta[b]furan-2-sulfonamide] | > 7.00 |
| O=C(Nc1c2c(c(Cl)c3c1CCC3)CCC2)NS(=O)(=O)c1cc2c(o1)CCCCC2O (stereo not drawn) [Compound 117, N-((8-chloro-1,2,3,5,6,7-hexahydro-s-indacen-4-yl)carbamoyl)-4-hydroxy-5,6,7,8-tetrahydro-4H-cyclohepta[b]furan-2-sulfonamide] | > 7.00 |
| CC1(O)CCCc2oc(S(=O)(=O)NC(=O)Nc3c4c(c(C#N)c5c3CCC5)CCC4)cc21 (stereo not drawn) [Compound 53, N-((8-cyano-1,2,3,5,6,7-hexahydro-s-indacen-4-yl)carbamoyl)-4-hydroxy-4-methyl-4,5,6,7-tetrahydrobenzofuran-2-sulfonamide] | 6.00 to 7.00 |
| CC(C)c1cc(Br)cc(C(C)C)c1NC(=O)NS(=O)(=O)c1cc2c(o1)CCCC2O (stereo not drawn) [Compound 69, N-((4-bromo-2,6-diisopropylphenyl)carbamoyl)-4-hydroxy-4,5,6,7-tetrahydrobenzofuran-2-sulfonamide] | 6.00 to 7.00 |
| CCOC(=O)CC1(C)CCCc2oc(S(=O)(=O)NC(=O)Nc3c4c(cc5c3CCC5)CCC4)c(C)c21 (stereo not drawn) [Compound 94, ethyl 2-(2-(N-((1,2,3,5,6,7-hexahydro-s-indacen-4-yl)carbamoyl)sulfamoyl)-3,4-dimethyl-4,5,6,7-tetrahydrobenzofuran-4-yl)acetate] | 6.00 to 7.00 |
| CC(C)c1ccc(Cl)c(C(C)C)c1NC(=O)NS(=O)(=O)c1cc2c(o1)CCCCC2O (stereo not drawn) [Compound 120, N-((3-chloro-2,6-diisopropylphenyl)carbamoyl)-4-hydroxy-5,6,7,8-tetrahydro-4H-cyclohepta[b]furan-2-sulfonamide] | 6.00 to 7.00 |
| O=C(Nc1c2c(c(F)c3c1CCC3)CCC2)NS(=O)(=O)c1cc2c(o1)CCCCC2O (stereo not drawn) [Compound 116, N-((8-fluoro-1,2,3,5,6,7-hexahydro-s-indacen-4-yl)carbamoyl)-4-hydroxy-5,6,7,8-tetrahydro-4H-cyclohepta[b]furan-2-sulfonamide] | > 7.00 |
| CC(C)c1cccc(C(C)C)c1CC(=O)NS(=O)(=O)c1cc2c(o1)CCC(C)(C)C2O (stereo not drawn) [Compound 74, 2-(2,6-diisopropylphenyl)-N-((4-hydroxy-5,5-dimethyl-4,5,6,7-tetrahydrobenzofuran-2-yl)sulfonyl)acetamide] | 5.00 to 6.00 |
| O=C(Nc1c2c(c(Br)c3c1CCC3)CCC2)NS(=O)(=O)c1cc2c(o1)CCCC2O (stereo not drawn) [Compound 39, N-((8-bromo-1,2,3,5,6,7-hexahydro-s-indacen-4-yl)carbamoyl)-4-hydroxy-4,5,6,7-tetrahydrobenzofuran-2-sulfonamide] | > 7.00 |
| CN1CCCc2oc(S(=O)(=O)NC(=O)Nc3c4c(cc5c3CCC5)CCC4)cc2C1=O [Compound 57, N-((1,2,3,5,6,7-hexahydro-s-indacen-4-yl)carbamoyl)-5-methyl-4-oxo-5,6,7,8-tetrahydro-4H-furo[3,2-c]azepine-2-sulfonamide] | 6.00 to 7.00 |

Source: patent US12466800B2, “N-((1,2,3,5,6,7-hexahydro-S-indacen-4-yl)carbamoyl)-4, 5, 6, 7-tetrahydrobenzofuran-2-sulfonamide derivatives and related compounds as NLPR3 modulators for the treatment of multiple sclerosis (MS)” (Zomagen Biosciences Ltd, priority 2019, dated 2025)
